The test system of assay [1] is PBMC's from two healthy donors. Nature of the assay: Human Mixed Lymphocyte Reaction (hMLR). The class given is cell-based. The conditions noted are these: 3H-thymidine incorporation, read-out: human MLR (IC50). The method, then:
Human Mixed Lymphocyte Reaction (hMLR)
PBMC's were isolated from two healthy donors by Ficoll gradient. Cells were resuspended with 4 mL assay media and counted with a Coulter Counter. Both cell populations were resuspended to 1×10^7/mL. Stimulator cells were irradiated for 2.5 min (2000 RAD) in cesium irradiator. 5×10^5 cells were added to duplicate wells of the plate. Included were quadruplicate wells receiving responder cells alone and stimulator cells alone. The compound to be tested was solubilized in DMSO. A series of 1:3 dilutions were performed to achieve a concentration range of 0.45 nM-3 uM. One hundred μl of the solutions to be tested were added to the cell plate (100 μl of 2% DMSO/media added to control wells). Plates were then incubated for 2.5 days at 37° C. with 5% CO2. Plates were pulsed with 50 μl/well 3H-thymidine at 0.5 uCi/well then incubated for 6 hours at 37° C. with 5% CO2. Cells were harvested using Cell Harvester (TomTec) and counted on TopCount (Perkin Elmer).
For orientation: Incorporation of labelled thymidine or its analogues reports DNA synthesis.

In assay [2] the target is sLFA-1/ICAM-1 (Homo sapiens, UniProt P05107+P20701, DEL701-769). The assay can be described thus: sLFA-1/ICAM-1 ELISA. The class given is binding. The conditions noted are these: sLFA-1 coated plates, 5dICAM-Fc binding, ELISA; read-out: LFA-1/ICAM (IC50). The method, then:
(§1) sLFA-1/ICAM-1 ELISA and Mac-1/ICAM-1 ELISA
(§2) Plates were coated with either 50 μl/well of 2.0 ug/ml solution of sLFA-1 or Mac-1 receptor in divalent cation buffer (1 mM MnCl2, 0.14M NaCl, 20 mM HEPES pH 7.2) at 4° C. overnight. Two hundred fifty μl of blocking buffer (1% BSA in divalent cation buffer) was added to each well 1 hour at 37° C. Plates were washed 3 times with wash buffer (TBS/0.05% Tween-20/1 mM MnCl2). The compound to be tested was solubilized in DMSO. A series of 1:3 dilutions were performed to achieve a concentration range of 0.45 nM-3 uM. Fifty μl of binding buffer (0.5% BSA in divalent cation buffer)/1% DMSO and 50 μl of the solutions to be tested were added to the appropriate wells and incubated for 1 hour. Fifty μl of 5dICAM-Fc (27 ng/ml) was added to the appropriate wells and 50 μl binding buffer was added to non-specific binding wells and incubated for 2 hours and washed. One hundred μl of 1:4000 HRP-goat anti-huIgG was added to each well and incubated for 1 hour and washed. One hundred μl of 1:1 TMB solution was added to each well and developed for 20 min at room temperature. Color development was stopped by adding 100 μl H3PO4 to each well. Absorbance was measured at 450 nm.
(ELISA stands for enzyme-linked immunosorbent assay.)

The target of assay [3] is Mac-1/ICAM-1 (Homo sapiens, UniProt P05107+P11215). Nature of the assay: Mac-1/ICAM-1 ELISA. To be noted: Mac-1 coated plates, 5dICAM-Fc binding. The method, then: as §1, §2
Sequence of Mac-1/ICAM-1 (P05107 23-769, other chains not shown): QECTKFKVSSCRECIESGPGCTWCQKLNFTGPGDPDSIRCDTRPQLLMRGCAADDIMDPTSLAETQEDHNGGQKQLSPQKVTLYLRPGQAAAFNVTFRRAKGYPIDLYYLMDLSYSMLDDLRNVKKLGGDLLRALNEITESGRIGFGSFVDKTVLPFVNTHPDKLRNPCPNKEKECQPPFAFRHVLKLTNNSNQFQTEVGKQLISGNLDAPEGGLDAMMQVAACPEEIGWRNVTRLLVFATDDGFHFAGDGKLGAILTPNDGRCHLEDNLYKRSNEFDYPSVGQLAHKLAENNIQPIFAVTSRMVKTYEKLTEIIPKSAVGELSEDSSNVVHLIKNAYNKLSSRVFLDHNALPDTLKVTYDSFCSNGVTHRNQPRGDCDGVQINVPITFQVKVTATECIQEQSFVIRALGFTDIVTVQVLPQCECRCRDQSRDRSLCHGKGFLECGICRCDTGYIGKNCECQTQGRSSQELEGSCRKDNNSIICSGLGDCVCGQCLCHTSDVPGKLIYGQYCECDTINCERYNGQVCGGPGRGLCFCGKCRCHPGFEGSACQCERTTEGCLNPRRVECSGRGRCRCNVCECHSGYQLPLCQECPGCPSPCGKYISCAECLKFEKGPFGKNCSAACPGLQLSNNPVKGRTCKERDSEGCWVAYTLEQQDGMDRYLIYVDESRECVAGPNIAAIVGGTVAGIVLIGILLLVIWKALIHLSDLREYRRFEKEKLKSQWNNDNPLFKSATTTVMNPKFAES

Sequence of sLFA-1/ICAM-1 (P20701 26-1090 limits assumed, stated change not applied): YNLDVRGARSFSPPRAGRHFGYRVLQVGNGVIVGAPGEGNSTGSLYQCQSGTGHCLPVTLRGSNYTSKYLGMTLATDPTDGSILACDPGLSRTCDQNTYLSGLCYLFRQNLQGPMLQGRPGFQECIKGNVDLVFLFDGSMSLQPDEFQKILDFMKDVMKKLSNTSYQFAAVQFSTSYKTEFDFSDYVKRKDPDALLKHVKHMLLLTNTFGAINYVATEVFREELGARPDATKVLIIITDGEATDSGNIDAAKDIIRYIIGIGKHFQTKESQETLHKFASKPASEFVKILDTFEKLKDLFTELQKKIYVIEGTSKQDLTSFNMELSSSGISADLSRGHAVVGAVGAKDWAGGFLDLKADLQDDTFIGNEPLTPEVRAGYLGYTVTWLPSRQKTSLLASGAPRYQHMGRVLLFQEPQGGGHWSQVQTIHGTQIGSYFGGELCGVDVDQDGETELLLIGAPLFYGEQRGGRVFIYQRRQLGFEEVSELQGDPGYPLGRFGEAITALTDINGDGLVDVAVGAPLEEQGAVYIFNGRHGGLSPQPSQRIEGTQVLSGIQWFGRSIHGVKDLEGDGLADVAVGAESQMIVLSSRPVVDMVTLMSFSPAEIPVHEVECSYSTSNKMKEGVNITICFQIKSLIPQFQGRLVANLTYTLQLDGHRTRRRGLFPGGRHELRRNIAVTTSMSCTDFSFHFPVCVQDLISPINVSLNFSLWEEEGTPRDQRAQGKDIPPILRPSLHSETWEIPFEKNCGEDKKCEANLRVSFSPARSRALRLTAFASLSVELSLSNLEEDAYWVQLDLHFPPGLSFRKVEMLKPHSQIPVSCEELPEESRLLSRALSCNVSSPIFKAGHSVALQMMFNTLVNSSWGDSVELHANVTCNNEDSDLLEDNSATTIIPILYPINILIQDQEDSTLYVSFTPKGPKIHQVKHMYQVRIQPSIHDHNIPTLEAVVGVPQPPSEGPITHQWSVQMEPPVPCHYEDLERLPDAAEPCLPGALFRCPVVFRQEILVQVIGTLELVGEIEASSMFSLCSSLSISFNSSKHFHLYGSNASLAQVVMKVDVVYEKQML
Sequence of sLFA-1/ICAM-1 (P05107 23-700 limits assumed, stated change not applied): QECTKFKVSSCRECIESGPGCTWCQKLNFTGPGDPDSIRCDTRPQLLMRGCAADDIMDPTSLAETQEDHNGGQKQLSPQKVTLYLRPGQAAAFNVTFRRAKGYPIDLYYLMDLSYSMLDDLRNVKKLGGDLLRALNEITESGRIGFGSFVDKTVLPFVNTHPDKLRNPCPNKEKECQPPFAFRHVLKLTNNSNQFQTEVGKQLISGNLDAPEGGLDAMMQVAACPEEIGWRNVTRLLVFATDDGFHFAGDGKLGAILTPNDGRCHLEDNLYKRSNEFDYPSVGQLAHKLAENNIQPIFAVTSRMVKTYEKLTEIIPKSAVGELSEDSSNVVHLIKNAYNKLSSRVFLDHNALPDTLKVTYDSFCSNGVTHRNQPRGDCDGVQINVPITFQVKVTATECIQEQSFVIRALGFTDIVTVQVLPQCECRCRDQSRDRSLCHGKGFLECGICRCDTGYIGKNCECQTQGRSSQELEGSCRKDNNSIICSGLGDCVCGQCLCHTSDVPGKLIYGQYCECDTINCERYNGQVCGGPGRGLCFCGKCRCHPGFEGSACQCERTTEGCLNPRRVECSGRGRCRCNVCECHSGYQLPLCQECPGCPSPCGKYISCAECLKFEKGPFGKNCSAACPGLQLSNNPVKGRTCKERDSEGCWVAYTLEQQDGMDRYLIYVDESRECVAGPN

With `Cc1nc(CCCCc2cccc(O)c2)nc(C)c1C(=O)N[C@@H](CNC(=O)c1cccs1)C(=O)O` [Example 1, (S)-2-({2-[4-(3-hydroxy-phenyl)-butyl]-4,6-dimethyl-pyrimidine-5-carbonyl}-amino)-3-[(thiophene-2-carbonyl)-amino]-propionic acid], the IC50 in assay [1] is 4.46 µM; in assay [2], 0.073 µM; in assay [3] it was 0.441 µM.

Turning to `Cc1nc(OCCCc2cccc(O)c2)nc(C)c1C(=O)N[C@@H](CNC(=O)c1cccs1)C(=O)O` [Example 3, (S)-2-({2-[3-(3-hydroxy-phenyl)-propoxy]-4,6-dimethyl-pyrimidine-5-carbonyl}-amino)-3-[(thiophene-2-carbonyl)-amino]-propionic acid], the values for the IC50 in assay [1], in assay [2] and in assay [3] were 0.574 µM, 0.032 µM and 0.057 µM, respectively.

For the molecule `Cc1nc(NCCCc2cccc3[nH]ncc23)nc(C)c1C(=O)N[C@@H](CNC(=O)c1cccs1)C(=O)O` [Example 6, (S)-2-({2-[3-(1H-indazol-4-yl)-propylamino]-4,6-dimethyl-pyrimidine-5-carbonyl}-amino)3-[(thiophene-2-carbonyl)-amino]-propionic acid], the IC50 in assay [1] came out at 0.374 µM; in assay [2], 0.021 µM; in assay [3] it was 0.02 µM.

Take `Cc1nc(NCCCc2cccc(O)c2)nc(C)c1C(=O)N[C@@H](CNC(=O)c1cccs1)C(=O)O` [Example 8, (S)-2-({2-[3-(3-hydroxy-phenyl)-propylamino]-4,6-dimethyl-pyrimidine-5-carbonyl}-amino)3-[(thiophene-2-carbonyl)-amino]-propionic acid]: the results for the IC50 in assay [1], in assay [2] and in assay [3] were 0.678 µM, 0.04 µM and 0.12 µM, respectively.

As to `Cc1nc(NCC#Cc2cccc(O)c2)nc(C)c1C(=O)N[C@@H](CNC(=O)c1cccs1)C(=O)O` [Example 61, (S)-2-({2-[3-(3-Hydroxy-phenyl)-prop-2-ynylamino]-4,6-dimethyl-pyrimidine-5-carbonyl}-amino)-3-[(thiophene-2-carbonyl)-amino]-propionic acid], the IC50 in assay [1] was 1.18 µM; in assay [2], 0.041 µM; in assay [3], 0.055 µM.

For the molecule `Cc1nc(NCC#Cc2cccc3[nH]ncc23)nc(C)c1C(=O)N[C@@H](CNC(=O)c1cccs1)C(=O)O` [Example 62, (S)-2-({2-[3-(1H-Indazol-4-yl)-prop-2-ynylamino]-4,6-dimethyl-pyrimidine-5-carbonyl}-amino)-3-[(thiophene-2-carbonyl)-amino]-propionic acid], the IC50 in assay [1] came to 3.81 µM; in assay [2], 0.08 µM; in assay [3], 0.045 µM.

On to `Cc1nc(NCCCc2cc(O)cc(F)c2)nc(C)c1C(=O)N[C@@H](CNC(=O)c1cccs1)C(=O)O` [Example 64, (S)-2-({2-[3-(3-Fluoro-5-hydroxy-phenyl)-propylamino]-4,6-dimethyl-pyrimidine-5-carbonyl}-amino)-3-[(thiophene-2-carbonyl)-amino]-propionic acid], for which the IC50 in assay [1] is 1.35 µM; in assay [2], 0.035 µM; in assay [3], 0.023 µM.

In the case of `Cc1nc(NCCCc2cccc(O)c2)nc(C)c1C(=O)N[C@@H](CNC(=O)c1cc(O)cc(O)c1)C(=O)O` [Example 81], the values for the IC50 in assay [1], in assay [2] and in assay [3] were 0.073 µM, 0.012 µM and 0.039 µM, respectively.

Turning to `Cc1nc(NCCCc2cccc(O)c2)nc(C)c1C(=O)N[C@@H](CNC(=O)c1cccc(O)c1)C(=O)O` [Example 83], the IC50 in assay [1] turned out to be 0.138 µM; in assay [2] it was 0.028 µM; in assay [3], 0.025 µM.

(Values after US20120270875A1, “PYRIMIDINE AMIDE COMPOUNDS” (priority 2011, published 2012).)
